Patent US10869931B2, “Polyethylene glycol-modified angiogenesis inhibitor HM-1 and application thereof” (NANJING ANJI BIOLOGICAL TECHNOLOGY CO.,LTD, priority 2016, dated 2020)
Marks after values point to notes of the source that are not given here. Where no end group is shown, it is not given here.

Columns and labels:
[1] = tested on: Thyroid cancer tumor cells; test: MTT proliferation inhibition, thyroid cancer cells; format: cell-based, human; design: concentration or dose not given beside the values; details: 48 h
Protocol: (§1) The activity of mPEG-HM-1 to inhibit the growth of various tumor cells was examined by MTT assay. The tumor cells were cultured to a concentration of 90% or more in a 37° C., 5% CO2 incubator and collected by trypsinization. The cells were resuspended in the culture medium and counted under a microscope to adjust the cell concentration to 2×10^4 cells/mL, the cell suspension was inoculated into a 96-well plate at 100 μL/well and incubated overnight at 37° C. in a 5% CO2 incubator. mPEG-HM-1 was diluted with the culture solution to each predetermined concentration. Docetaxel is diluted to the final concentration with the culture medium. After the cells were fully attached, each dilution was added to a 96-well plate (100 μL/well). The mPEG-HM-1 dilution was added as a drug-administered group, and docetaxel was added as a positive control group, and a culture solution without any drug was used as a negative control group. Incubate for 48 h at 37° C. in a 5% CO2 incubator. 5 mg/mL of MTT was added to a 96-well plate at 20 μL per well, and incubation was continued for 4 hours. The medium was aspirated, dissolved in 150 μL of DMSO per well, and gently mixed by shaking for 10 min. The absorbance was measured at a measurement wavelength of 570 nm and a reference wavelength of 630 nm using a microplate reader, and the rate of growth inhibition (proliferation inhibition, PI) was calculated. The formula is as follows: PI (%)=1−administration group/negative group
(§2) The test was repeated 3 times independently, and the results obtained by the test were expressed as mean±SD, and the test results are shown in Table 15 to Table 18.

[2] = tested on: Pancreatic cancer tumor cells; test: MTT proliferation inhibition, pancreatic cancer cells; format: cell-based, human; design: concentration or dose not given beside the values; details: 48 h
Protocol: as §1, §2

[3] = tested on: Gastric cancer tumor cells; test: MTT proliferation inhibition, gastric cancer cells; format: cell-based, human; design: concentration or dose not given beside the values; details: 48 h
Protocol: as §1, §2

[4] = tested on: Colorectal cancer tumor cells; test: MTT proliferation inhibition, colorectal cancer cells; format: cell-based, human; design: concentration or dose not given beside the values; details: 48 h
Protocol: as §1, §2

[5] = tested on: Bladder Cancer tumor cells; test: MTT proliferation inhibition, bladder cancer cells; format: cell-based, human; design: concentration or dose not given beside the values; details: 48 h
Protocol: as §1, §2

Melanoma tumor cells = test: MTT proliferation inhibition, melanoma cells; format: cell-based, human; design: concentration or dose not given beside the values; details: 48 h
Protocol: as §1, §2

[6] = tested on: Human Umbilical Vein Endothelial Cells (HUVEC); test: Transwell migration of HUVEC; format: cell-based; details: 24 h
Protocol: 10 mg/mL Matrigel was diluted 1:2 with HUVEC-specific medium, spread on a transwell chamber membrane, and air-dried at room temperature. HUVEC cells cultured in logarithmic growth phase were digested with trypsin digest, collected, washed twice with PBS, and resuspended in blank HUVECs-specific medium. The cells were counted under a microscope, and the cell concentration was adjusted to 1×10^5/mL. The test solutions of each group were prepared and diluted to 100 μL with a blank HUVECs-specific medium. The cells were seeded into a transwell chamber at 100 μL per well, and each set of test solution was added to the chamber. The cell culture was stimulated by adding 0.6 mL of endothelial cell culture medium containing 5% fetal bovine serum and 1% ECGS into a 24-well plate, and cultured at 5% CO2 for 24 hour at 37° c. Discard the culture medium in the well, fix it with 90% alcohol at room temperature for 30 minutes, 0.1% crystal violet for 10 min at room temperature, rinse with water, gently wipe off the unsprayed cells in the upper layer with a cotton swab, observe under microscope and select four fields to take pictures. Calculate migration inhibition (MI) according to the formula: […]
Ntest was the number of cell migration in the test group, and Ncontrol was the number of cell migration in the blank control group.
The test was repeated 3 times independently. The results obtained from the test were calculated as mean±SD, and a statistical T test was performed. *P<0.05 was a significant difference, and **P<0.01 was a very significant difference.

[7] = tested on: adjuvant arthritis (AA) SD rats; test: Adjuvant arthritis (AA) rat model; format: in vivo; details: AA SD rats; for Clinical score: maximum score 16
[8] = tested on: carrageenan-induced toe swelling in SD rats; test: Carrageenan-induced acute toe swelling in rats; format: in vivo, rat; design: Swelling: unit not given here
Protocol: SD rats were divided into blank model group, dexamethasone-positive group (5 mg/kg) and mPEG-HM-1 test group. The drug was administered once a day, and the model group was given the same volume of normal saline for 3 days and fed normally. At the first hour after the last administration, 0.1 mL of 1% carrageenan was injected subcutaneously into the right hind paw of the rats to induce inflammation. The volume of the foot was measured at 1 h, 3 h, 5 h, and 7 h after inflammation. The degree of swelling of the foot was calculated according to the following formula: the degree of swelling of the foot (mL)=the volume of the foot after inflammation−the volume before inflammation. Record the number of milliliters of spilled liquid (method: use the ballpoint pen to circle as the measurement mark at the protruding point of the right joint, and then put the right hind foot of each mouse into the volume measuring device, so that the hind limb is exposed outside the cylinder, and the depth of the immersion was determined by coinciding the circle with the liquid surface. After the foot enters the liquid, the liquid level rises, and the volume of the overflow liquid is the volume of the right hind foot of the rat, and the normal volume of the right hind foot of each mouse is sequentially determined).

[9] = tested on: retinal neovascular clusters in OIR C57/B16 mice; test: Retinal blood vessels in OIR mice; format: in vivo, mouse; details: for Neovascular clusters area: retina evaluated on day 17; for Inhibition rate: neovascular clusters area vs control, day 17
Description: Establishment of the OIR model: Exposure of young mouse and their mothers to 75% hyperoxic environment from day 7 to day 12 after birth of C57/B16 mice caused rapid disappearance of capillaries in the central retina. Upon returning to the indoor air on the 12th day, the retinal blood vessels, upon exposing to hyperoxia, rapidly disappeared, causing extensive abnormal neovascularization, and the central portion of the retina remained largely avascular for a long time. After the blood vessels disappeared completely, on the 13th day, physiological saline (negative control group), mPEG-SC-HM-1, mPEG2-NHS-HM-1, mPEG-ALD10k-HM-1, and mPEG-bALD-HM-1, were administered by intravitreal injection and retinal vessels were evaluated on day 17 (to label unclosed vessels, […] of Texas Red-labeled tomato lectin was injected into the left ventricle and circulated for 5 min).

[10] = 40 mg/kg subcutaneous once every three days
[11] = 80 mg/kg once a day for 3 days, 1 h after carrageenan
[12] = 80 mg/kg once a day for 3 days, 3 h after carrageenan
[13] = 80 mg/kg once a day for 3 days, 5 h after carrageenan
[14] = 80 mg/kg once a day for 3 days, 7 h after carrageenan
[15] = 80 mg/kg subcutaneous once every three days
[16] = 10 mg/kg subcutaneous once every three days

mPEG2-NHS20k-Arg-Gly-Ala-Asp-Arg-Ala-Gly-Gly-Gly-Gly-Arg-Gly-Asp ({mPEG2‑NHS 20 kDa}-RGADRAGGGGRGD) [mPEG2-NHS20k-HM-1]
rate of growth inhibition [1]: 43.68 ± 13.61%
rate of growth inhibition [2]: 52.13 ± 13.32%
rate of growth inhibition [3]: 60.90 ± 20.14%
rate of growth inhibition [4]: 58.16 ± 20.36%
rate of growth inhibition [5]: 49.79 ± 12.73%
rate of growth inhibition (Melanoma tumor cells): 69.11 ± 21.79%
cell migration number (Mean ± SD) ([6]; 70 μg/mL): 618.48 ± 47.53
inhibition rate of HUVEC migration ([6]; 70 μg/mL): 40.34%*
cell migration number (Mean ± SD) ([6]; 80 μg/mL): 512.85 ± 40.86
inhibition rate of HUVEC migration ([6]; 80 μg/mL): 50.53%
cell migration number (Mean ± SD) ([6]; 90 μg/mL): 434.68 ± 42.64
inhibition rate of HUVEC migration ([6]; 90 μg/mL): 58.07%
cell migration number (Mean ± SD) ([6]; 100 μg/mL): 562.61 ± 62.34
inhibition rate of HUVEC migration ([6]; 100 μg/mL): 45.73%*
Joint swelling [7, 10]: 0.80 ± 0.21 mm
Left and right paw swelling [7, 10]: 3.77 ± 0.66 mm
Clinical score [7, 10]: 5.82 ± 1.03
Swelling ([8]; 40 mg/kg once a day for 3 days, 1 h after carrageenan): 0.26 ± 0.15
Swelling ([8]; 40 mg/kg once a day for 3 days, 3 h after carrageenan): 0.34 ± 0.14
Swelling ([8]; 40 mg/kg once a day for 3 days, 5 h after carrageenan): 0.43 ± 0.17
Swelling ([8]; 40 mg/kg once a day for 3 days, 7 h after carrageenan): 0.36 ± 0.12
Swelling [8, 11]: 0.25 ± 0.11
Swelling [8, 12]: 0.32 ± 0.13
Swelling [8, 13]: 0.41 ± 0.11
Swelling [8, 14]: 0.34 ± 0.14
Neovascular clusters area ([9]; 100 μg intravitreal injection on day 13): 0.112 ± 0.011 mm^2
Inhibition rate ([9]; 100 μg intravitreal): 49.27%**

mPEG2-NHS40k-Arg-Gly-Ala-Asp-Arg-Ala-Gly-Gly-Gly-Gly-Arg-Gly-Asp ({mPEG2‑NHS 40 kDa}-RGADRAGGGGRGD) [mPEG2-NHS40k-HM-1]
rate of growth inhibition [1]: 45.19 ± 14.07%
rate of growth inhibition [2]: 51.49 ± 16.28%
rate of growth inhibition [3]: 56.39 ± 11.58%
rate of growth inhibition [4]: 54.40 ± 18.29%
rate of growth inhibition [5]: 45.60 ± 10.11%
rate of growth inhibition (Melanoma tumor cells): 66.72 ± 20.85%
cell migration number (Mean ± SD) ([6]; 90 μg/mL): 640.05 ± 50.70
inhibition rate of HUVEC migration ([6]; 90 μg/mL): 38.26%*
cell migration number (Mean ± SD) ([6]; 100 μg/mL): 516.99 ± 60.04
inhibition rate of HUVEC migration ([6]; 100 μg/mL): 50.13%
cell migration number (Mean ± SD) ([6]; 110 μg/mL): 464.43 ± 46.48
inhibition rate of HUVEC migration ([6]; 110 μg/mL): 55.20%
cell migration number (Mean ± SD) ([6]; 120 μg/mL): 584.48 ± 52.28
inhibition rate of HUVEC migration ([6]; 120 μg/mL): 43.62%*
Joint swelling [7, 15]: 0.73 ± 0.14 mm
Left and right paw swelling [7, 15]: 3.81 ± 0.63 mm
Clinical score [7, 15]: 5.89 ± 1.07
Swelling [8, 11]: 0.26 ± 0.12
Swelling [8, 12]: 0.32 ± 0.11
Swelling [8, 13]: 0.42 ± 0.14
Swelling [8, 14]: 0.35 ± 0.17
Swelling ([8]; 160 mg/kg once a day for 3 days, 1 h after carrageenan): 0.27 ± 0.10
Swelling ([8]; 160 mg/kg once a day for 3 days, 3 h after carrageenan): 0.35 ± 0.18
Swelling ([8]; 160 mg/kg once a day for 3 days, 5 h after carrageenan): 0.41 ± 0.13
Swelling ([8]; 160 mg/kg once a day for 3 days, 7 h after carrageenan): 0.34 ± 0.19
Neovascular clusters area ([9]; 200 μg intravitreal injection on day 13): 0.120 ± 0.008 mm^2
Inhibition rate ([9]; 200 μg intravitreal): 45.92%*

mPEG-ALD5k-Arg-Gly-Ala-Asp-Arg-Ala-Gly-Gly-Gly-Gly-Arg-Gly-Asp ({mPEG‑ALD 5 kDa}-RGADRAGGGGRGD) [mPEG-ALD5k-HM-1]
rate of growth inhibition [1]: 40.23 ± 10.05%
rate of growth inhibition [2]: 52.19 ± 12.64%
rate of growth inhibition [3]: 58.77 ± 15.49%
rate of growth inhibition [4]: 57.30 ± 15.82%
rate of growth inhibition [5]: 35.93 ± 10.29%
rate of growth inhibition (Melanoma tumor cells): 63.61 ± 21.30%
cell migration number (Mean ± SD) ([6]; 30 μg/mL): 606.88 ± 58.90
inhibition rate of HUVEC migration ([6]; 30 μg/mL): 41.02%*
cell migration number (Mean ± SD) ([6]; 40 μg/mL): 494.52 ± 52.69
inhibition rate of HUVEC migration ([6]; 40 μg/mL): 51.94%
cell migration number (Mean ± SD) ([6]; 50 μg/mL): 415.39 ± 44.92
inhibition rate of HUVEC migration ([6]; 50 μg/mL): 59.63%
cell migration number (Mean ± SD) ([6]; 60 μg/mL): 578.69 ± 66.03
inhibition rate of HUVEC migration ([6]; 60 μg/mL): 43.76%*
Joint swelling [7, 16]: 0.72 ± 0.17 mm
Left and right paw swelling [7, 16]: 3.92 ± 0.67 mm
Clinical score [7, 16]: 5.91 ± 1.09
Swelling ([8]; 10 mg/kg once a day for 3 days, 1 h after carrageenan): 0.22 ± 0.10
Swelling ([8]; 10 mg/kg once a day for 3 days, 3 h after carrageenan): 0.35 ± 0.13
Swelling ([8]; 10 mg/kg once a day for 3 days, 5 h after carrageenan): 0.41 ± 0.15
Swelling ([8]; 10 mg/kg once a day for 3 days, 7 h after carrageenan): 0.31 ± 0.12
Swelling ([8]; 20 mg/kg once a day for 3 days, 1 h after carrageenan): 0.21 ± 0.11
Swelling ([8]; 20 mg/kg once a day for 3 days, 3 h after carrageenan): 0.34 ± 0.19
Swelling ([8]; 20 mg/kg once a day for 3 days, 5 h after carrageenan): 0.37 ± 0.11
Swelling ([8]; 20 mg/kg once a day for 3 days, 7 h after carrageenan): 0.35 ± 0.13
Neovascular clusters area ([9]; 25 μg intravitreal injection on day 13): 0.108 ± 0.006 mm^2
Inhibition rate ([9]; 25 μg intravitreal): 50.98%**
